IC50 data for one compound are collected here from US12329739B2, “Isoflavonoid compounds and methods for the treatment of cancer” (Aardvark Therapeutics, Inc., priority 2010, dated 2025).

In this experiment the test system is DU145. As to the kind of experiment: MTT proliferation assay, DU145. As to conditions: Homo sapiens, DU-145; Prostate, DU145, 120 h of exposure. The class given is cell-based. The protocol: Proliferation Assays. IC50 values were determined for each cell line. Cells were seeded in 96-well plates at an appropriate cell density as determined from growth kinetics analysis and cultured for 5 days in the absence and presence of the test compounds. Cell proliferation was assessed after the addition of 20 μl of 3-4,5 dimethylthiazol-2,5-diphenyl tetrazolium bromide (MTT, 5 mg/ml in PBS, Sigma) for 5 hrs at 37° C. according to manufacturer's instructions. IC50 values were calculated from semi-log plots of % of control proliferation on the y-axis against log dose on the x-axis.
Anti-proliferative Activity of Isoflavonoid Derivatives. IC50 values were determined for each cell line after 120 h of exposure.
For orientation: Tetrazolium assays rely on reduction of a dye to a coloured formazan, in cell work by metabolically active cells.

As for `Oc1ccc([C@H]2c3ccc(O)cc3OC[C@H]2c2ccc(O)cc2)cc1` [Compound 31, d-cis-3-(4-hydroxyphenyl)-4-(4-hydroxyphenyl)chroman-7-ol], the half-maximal inhibitory concentration (IC50) (commonly the concentration at which inhibition is half-maximal) was in the range of 150 to 500 nM.
